The assay concerns IL-2 production. Briefly: Inhibition of IL-2 production in PHA-activated Jurkat cells (ELISA). The assay is classed as cell-based. The conditions noted are these: Homo sapiens. The method, then:
Jurkat cells were placed in a 96 well plate (0.5 million cells per well in 1% FBS medium) then test compounds of this invention were added at different concentrations. After 10 minutes, the cells were activated with PHA (final concentration 2.5 μg/mL) and incubated for 20 hours at 37° C. under CO2. The final volume was 200 μL. Following incubation, the cells were centrifuged and the supernatants collected and stored at −70° C. prior to assaying for IL-2 production. A commercial ELISA kit (IL-2 Eli-pair, Diaclone Research, Besancon, France) was used to detect production of IL-2, from which dose response curves were obtained. The IC50 value was calculated as the concentration at which 50% of maximum IL-2 production after stimulation was inhibited versus a non-stimulation control.

[1] abbreviates: PHA 2.5 μg/mL, 20 hours, value bins.

The values below come from US20050148633A1 (priority 2003, published 2005).

By IC50 is commonly meant the concentration at which inhibition is half-maximal.

Structures are written as SMILES.

For `O=C(Nc1ccc(-n2c(C(F)(F)F)nnc2C(F)(F)F)cc1)c1cccc(F)c1F` [Compound 32, N-[4-(3,5-Bis-trifluoromethyl-[1,2,4]triazol-4-yl)-phenyl]-2,3-difluoro-benzamide], under setting [1], the IC50 lay in the range of 100 to 500 nM. Same read-out and setting: as for `O=C(Nc1ccc(-c2cc(C(F)(F)F)ccc2C(F)(F)F)cc1)c1c(F)cccc1F` [Compound 85, N-(2′,5′-bis-trifluoromethylbiphenyl-4-yl)-2,6-difluorobenzamide], the figure is below 100 nM. As to `CCn1nc(C)cc1C(=O)Nc1ccc(-c2ccccc2C(F)(F)F)cc1` [Compound 14, 2-Ethyl-5-methyl-2H-pyrazole-3-carboxylic acid (2′-trifluoromethyl-biphenyl-4-yl)-amide], the IC50 (PHA, bin >1 μM) is above 1000 nM. `Cc1nnsc1C(=O)Nc1ccc(-c2cc(OC(F)(F)F)ccc2N(C)C)cc1` [Compound 73, 4-methyl-[1,2,3]-thiadiazole-5-carboxylic acid {2′-(N,N-dimethylamino)-5′-trifluoromethoxybiphenyl-4-yl}-amide] came in with an IC50 under setting [1] below 100 nM. The same measure, in the same setting: as for `Cc1ncccc1C(=O)Nc1ccc(-c2cc(C(F)(F)F)ccc2C(F)(F)F)cc1` [Compound 60, 2-methyl-pyridine-3-carboxylic acid (2′,5′-bis-trifluoromethyl-biphenyl-4-yl)-amide], the figure is 100 to 500 nM. Consider `O=C(Nc1ccc(-c2ccccc2C(F)(F)F)cc1)c1ccccn1` [Compound 25, Pyridine-2-carboxylic acid (2′-trifluoromethyl-biphenyl-4-yl)-amide], for which the IC50 (PHA, bin >1 μM) is above 1000 nM. As for `O=C(Nc1ccc(-c2cc(C(F)(F)F)ccc2C(F)(F)F)cc1)c1ccccc1O` [Compound 49, N-(2′,5′-bis-trifluoromethyl-biphenyl-4-yl)-2-hydroxybenzamide], for the setting “PHA, bin 500 nM-1 μM”, the IC50 lay in the range of 500 to 1000 nM.

For `O=C(Nc1ccc(-c2cc(C(F)(F)F)ccc2C(F)(F)F)cc1)c1cccc2c1OCCO2` [Compound 61, 2,3-dihydro-benzo[1,4]dioxine-5-carboxylic acid (2′,5′-bis-trifluoromethyl-biphenyl-4-yl)-amide], the IC50 (PHA, bin 500 nM-1 μM) was 500 to 1000 nM.

Under setting [1], `O=C(Nc1ccc(-c2cc(Cl)ccc2OC(F)F)cc1)c1ccncc1F` [Compound 72, 3-fluoro-pyridine-4-carboxylic acid (2′-difluoromethoxy-5′-chlorobiphenyl-4-yl)-amide] had an IC50 below 100 nM.

Under setting [1], `O=C(Nc1ccc(-c2ccccc2C(F)(F)F)cc1)c1ccncc1` [Compound 8, N-(2′-Trifluoromethyl-biphenyl-4-yl)-isonicotinamide] gave an IC50 of 100 to 500 nM. The compound `O=C(Nc1ccc(-c2cccc(C(F)(F)F)c2)cc1)c1ccncc1F` [Compound 3, 3-Fluoro-N-(3′-trifluoromethyl-biphenyl-4-yl)-isonicotinamide] displayed an IC50 (PHA, bin 500 nM-1 μM) of 500 to 1000 nM. `COc1cccc(C(=O)Nc2ccc(-c3cc(C(F)(F)F)ccc3C(F)(F)F)cc2)c1C` [Compound 56, N-(2′,5′-bis-trifluoromethyl-biphenyl-4-yl)-2-methyl-3-methoxybenzamide] came in with an IC50 under setting [1] below 100 nM. Same read-out and setting: as for `COc1ccc(Cl)cc1-c1ccc(NC(=O)c2cccc(F)c2F)cc1` [Compound 44, N-(2′-methoxy-5′-chloro-biphenyl-4-yl)-2,3-difluoro-benzamide], the figure is below 100 nM; as for `O=C(Nc1ccc(-c2ccccc2C(F)(F)F)cc1)c1cccc(F)c1F` [Compound 15, 2,3-Difluoro-N-(2′-trifluoromethyl-biphenyl-4-yl)-benzamide], 100 to 500 nM.

The compound `Cc1c(F)cccc1C(=O)Nc1ccc(-c2cc(C(F)(F)F)ccc2C(F)(F)F)cc1` [Compound 55, N-(2′,5′-bis-trifluoromethyl-biphenyl-4-yl)-2-methyl-3-fluorobenzamide] registered an IC50 under setting [1] below 100 nM. The compound `O=C(Nc1ccc(-c2cc(C(F)(F)F)ccc2Cl)cc1)c1c(F)cccc1F` [Compound 86, N-(2′-chloro-5′-trifluoromethylbiphenyl-4-yl)-2,6-difluorobenzamide] registered an IC50 under setting [1] below 100 nM.
